# Results from patent US20200123190A1.
# pIC50: −log10 of the molar value.
# Tested on: human pancreatic cancer cells (MIA-Paca-2)
# Assay: Cell growth inhibitory effect, alamarBlue
# Assay type: cell-based
# Details: MIA-Paca-2, cultured for 3 days
# Protocol: Each of the test compounds (DMSO solutions in various concentrations) was added to 100 μL of a culture solution containing human pancreatic cancer cells (MIA-Paca-2) (cell count: about 5×10^3 cells) and cultured for 3 days. The cell growth inhibitory effect was investigated by fluorescence color development using alamarBlue reagent. Each of their IC50 values was determined.
"pIC50 (Homo sapiens, 72 h)",Molecule,pIC50
5.13,"Nc1ccn([C@@H]2O[C@H](CO)[C@@H](O)C2(F)F)c(=O)n1 [Gemcitabine, 2′-Deoxy-2′,2′-difluorocytidine, reference compound]",–
–,"O,O′— Di (4-chloro)benzyl 2′-deoxy-2′,2′-difluoro-5′-cytidylate [Compound (2)]",4.74
–,"O,O′— Di(4-bromo)benzyl 2′-deoxy-2′,2′-difluoro-5′-cytidylate [Compound (3)]",4.66
–,"O,′-Di (4-fluoro)benzyl 2′-deoxy-2′,2′-difluoro-5′-cytidylate [Compound (1)]",5.01
